Source: patent US20110313034A1, “NEUROACTIVE PLANT EXTRACT FROM HYPERICUM POLYANTHEMUM” (UNIVERSIDADE FEDERAL DO RIO GRANDE DO SUL, priority 2009, published 2011)
Values belong to the molecule of their own block, whether it stands above or below them.

What was measured:
monoamine oxidase A = molecular target: T1, monoamine oxidase A (Rattus norvegicus, UniProt P21396); settings: mitochondria from rat brain; cited from earlier work
T1 construct: in preparations of mitochondria from rat brain; from tissue; host or cells: rat brain mitochondria
T1 sequence (P21396 1-526): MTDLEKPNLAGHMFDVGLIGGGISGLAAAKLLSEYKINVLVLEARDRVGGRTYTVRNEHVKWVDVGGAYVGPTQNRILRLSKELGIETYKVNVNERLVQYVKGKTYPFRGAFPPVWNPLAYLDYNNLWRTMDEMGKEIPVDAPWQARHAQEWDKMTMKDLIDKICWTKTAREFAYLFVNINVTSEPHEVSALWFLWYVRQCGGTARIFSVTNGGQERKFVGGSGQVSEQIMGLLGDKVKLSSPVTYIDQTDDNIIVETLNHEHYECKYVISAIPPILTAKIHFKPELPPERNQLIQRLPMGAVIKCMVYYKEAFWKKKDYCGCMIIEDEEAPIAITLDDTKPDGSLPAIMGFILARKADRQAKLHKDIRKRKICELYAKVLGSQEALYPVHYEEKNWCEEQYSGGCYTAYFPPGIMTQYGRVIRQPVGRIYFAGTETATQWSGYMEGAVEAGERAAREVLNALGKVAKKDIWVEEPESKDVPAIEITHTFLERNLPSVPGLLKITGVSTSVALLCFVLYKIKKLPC

sites of uptake of DA = molecular target: T2, sites of uptake of DA (Rattus norvegicus, UniProt P23977); assay: binding of [3H]-mazindol to sites of uptake of DA, striatum membranes; settings: 3×10^−7-3×10^−11 g/mL
T2 construct: in synaptosomes prepared from striatum, hypothalamus and frontal cortex, respectively; from tissue; host or cells: striatum (synaptosomes; membranes)
T2 sequence (P23977 whole entry): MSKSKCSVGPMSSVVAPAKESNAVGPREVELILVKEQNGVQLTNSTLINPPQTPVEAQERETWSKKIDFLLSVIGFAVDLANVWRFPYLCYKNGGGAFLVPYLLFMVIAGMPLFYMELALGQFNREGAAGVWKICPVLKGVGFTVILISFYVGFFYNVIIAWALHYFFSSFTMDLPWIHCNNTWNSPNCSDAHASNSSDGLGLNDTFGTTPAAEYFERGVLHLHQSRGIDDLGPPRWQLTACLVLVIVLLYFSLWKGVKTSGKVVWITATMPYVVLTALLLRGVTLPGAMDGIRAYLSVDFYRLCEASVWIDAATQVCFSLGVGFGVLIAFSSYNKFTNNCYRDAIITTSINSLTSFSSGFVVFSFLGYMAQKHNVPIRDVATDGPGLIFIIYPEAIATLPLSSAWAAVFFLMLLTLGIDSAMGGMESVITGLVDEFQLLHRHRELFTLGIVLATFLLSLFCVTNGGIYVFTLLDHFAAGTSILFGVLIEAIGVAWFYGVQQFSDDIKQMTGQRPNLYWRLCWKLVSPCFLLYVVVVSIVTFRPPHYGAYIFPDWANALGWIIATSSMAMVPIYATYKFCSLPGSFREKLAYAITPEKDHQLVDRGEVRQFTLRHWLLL

sites of uptake of NA = molecular target: T3, sites of uptake of NA (Rattus norvegicus, UniProt Q9WTR4); assay: binding of [3H]-nisoxetina to sites of uptake of NA, hypothalamus membranes; settings: 3×10^−7-3×10^−11 g/mL
T3 construct: in synaptosomes prepared from striatum, hypothalamus and frontal cortex, respectively; from tissue; host or cells: hypothalamus (synaptosomes; membranes)
T3 sequence (Q9WTR4 1-597): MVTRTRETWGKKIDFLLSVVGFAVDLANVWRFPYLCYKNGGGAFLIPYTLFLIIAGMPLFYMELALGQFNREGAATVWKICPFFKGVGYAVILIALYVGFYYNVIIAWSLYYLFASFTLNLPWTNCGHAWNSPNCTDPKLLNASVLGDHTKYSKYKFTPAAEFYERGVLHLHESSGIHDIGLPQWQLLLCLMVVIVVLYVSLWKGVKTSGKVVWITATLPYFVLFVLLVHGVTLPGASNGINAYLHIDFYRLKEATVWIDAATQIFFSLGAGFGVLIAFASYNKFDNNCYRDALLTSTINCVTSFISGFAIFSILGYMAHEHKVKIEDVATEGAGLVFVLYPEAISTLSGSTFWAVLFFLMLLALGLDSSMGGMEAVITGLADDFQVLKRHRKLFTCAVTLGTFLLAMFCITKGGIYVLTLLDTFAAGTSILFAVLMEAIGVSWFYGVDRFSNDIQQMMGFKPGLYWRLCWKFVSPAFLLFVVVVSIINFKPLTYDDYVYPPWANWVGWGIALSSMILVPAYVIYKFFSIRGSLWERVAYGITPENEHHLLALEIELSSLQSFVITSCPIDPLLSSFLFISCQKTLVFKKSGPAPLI

sites of uptake of 5-HT = molecular target: T4, sites of uptake of 5-HT (Rattus norvegicus, UniProt P31652); assay: binding of [3H]-citalopram to sites of uptake of 5-HT, frontal cortex membranes; settings: 3×10^−7-3×10^−11 g/mL
T4 construct: in synaptosomes prepared from striatum, hypothalamus and frontal cortex, respectively; from tissue; host or cells: frontal cortex (synaptosomes; membranes)
T4 sequence (P31652 whole entry): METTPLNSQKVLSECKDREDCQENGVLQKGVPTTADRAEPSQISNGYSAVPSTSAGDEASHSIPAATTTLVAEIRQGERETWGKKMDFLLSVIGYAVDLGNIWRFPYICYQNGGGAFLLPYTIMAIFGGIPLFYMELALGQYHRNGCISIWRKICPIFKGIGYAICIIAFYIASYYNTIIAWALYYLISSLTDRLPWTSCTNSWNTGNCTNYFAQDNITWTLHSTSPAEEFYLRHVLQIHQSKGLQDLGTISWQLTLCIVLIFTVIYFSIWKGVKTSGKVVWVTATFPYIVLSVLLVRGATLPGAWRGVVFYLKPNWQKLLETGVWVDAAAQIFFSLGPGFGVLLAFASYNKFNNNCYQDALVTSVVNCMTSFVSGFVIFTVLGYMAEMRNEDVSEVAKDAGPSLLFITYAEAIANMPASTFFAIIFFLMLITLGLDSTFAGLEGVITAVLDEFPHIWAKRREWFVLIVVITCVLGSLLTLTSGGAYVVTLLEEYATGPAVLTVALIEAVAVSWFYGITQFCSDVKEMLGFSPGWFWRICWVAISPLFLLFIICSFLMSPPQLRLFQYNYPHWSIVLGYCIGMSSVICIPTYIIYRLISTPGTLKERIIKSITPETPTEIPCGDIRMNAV

G proteins = assay: direct incubation of membranes with HP4, [35S]GTPγS binding; type: biochemical, rats
Description: To evaluate the effect of POL on DA, NA, 5-HT and opioids receptors, we used the technique of binding of [^35S] GTPγS stimulated by DA, NA, 5-HT and DAMGO in membranes prepared from striatum, hypothalamus, frontal cortex and thalamus of rats, respectively. […] GTPγS stimulated by DA, NA and 5-HT, while 5 days of treatment with 90 mg/kg, decreases this binding. […] This time profile of action coincides with the modern theories that the antidepressant effect is related to neuroadaptation processes.
GTPγS to its site. […] These changes can occur through other regulatory mechanisms or are related to HP4 metabolites produced after administration in vivo of POL. […] GTPγS stimulated by agonists after different treatment regimens with saline and POL.

immobility time of mice = assay: Porsolt's forced swimming test (FST) in mice; type: in vivo, CF1 mice; settings: 90 mg/kg, p.o.
Description: The species H. caprifoliatum, H. carinatum, H. connatum, H. myrianthum, H. piriai, H. polyanthemum and H. cordatum, and three isolated benzopyrans of H. polyanthemum (HP1, HP2, and HP3) were tested for inhibitory activity of monoamine oxidase A and B in preparations of mitochondria from rat brain.
Results are expressed as mean±SEM. * Significant difference compared to the SAL group (water+polysorbate 80, 5%, 1 ml/kg, p.o.) # significant difference compared to POL270 (ANOVA F(7,79)=5.9, p<0.001).
Results are expressed as mean±SEM. *Significant difference compared to the SAL group (water+polysorbate 80, 5%, 1 ml/kg, p.o.) (ANOVA, F(2,29)=15.5, p<0.001).
POL was active in rats (270 mg/kg/day, p.o.) and mice (180, 270 and 360 mg/kg, p.o.). The action of POL in the FST was blocked by administration of SCH 23390 (dopamine D1 antagonist) […], i.p., and sulpiride (D2 dopamine antagonist) 50 mg/kg, ip, (FIG. 1). HP4 was active at a dose of 90 mg/kg, p.o. in mice (FIG. 2).

[1] = molecular target: T5, synaptosomal reuptake of dopamine ([3H]-DA) (Rattus norvegicus, UniProt P23977); assay: synaptosomal reuptake of dopamine ([3H]-DA), striatum synaptosomes; type: biochemical; parameters: in synaptosomes prepared from striatum, hypothalamus and frontal cortex, respectively; from tissue; host or cells: striatum (synaptosomes; membranes)
T5 sequence (P23977 whole entry): as the sequence (P23977 whole entry) above
Source text: (§1) The effect of HP4 (3×10^−4-3×10^−11 g/mL) on synaptosomal reuptake of dopamine ([^3H]-DA), noradrenaline ([^3H]-NA) and serotonin ([^3H]-5HT) in synaptosomes prepared from striatum, hypothalamus and frontal cortex, respectively. […] This profile differs from other antidepressants, which inhibit the reuptake of monoamines through competition for binding site on the transporter.

[2] = molecular target: T6, synaptosomal reuptake of noradrenaline ([3H]-NA) (Rattus norvegicus, UniProt Q9WTR4); assay: synaptosomal reuptake of noradrenaline ([3H]-NA), hypothalamus synaptosomes; type: biochemical; parameters: in synaptosomes prepared from striatum, hypothalamus and frontal cortex, respectively; from tissue; host or cells: hypothalamus (synaptosomes; membranes); settings: synaptosomes from hypothalamus; HP4 3×10^−4-3×10^−11 g/mL; read-out: IC50, synaptosomal uptake of NA
T6 sequence (Q9WTR4 1-597): as the sequence (Q9WTR4 1-597) above
Source text: as §1

[3] = molecular target: T7, synaptosomal reuptake of serotonin ([3H]-5HT) (Rattus norvegicus, UniProt P31652); assay: synaptosomal reuptake of serotonin ([3H]-5HT), frontal cortex synaptosomes; type: biochemical; parameters: in synaptosomes prepared from striatum, hypothalamus and frontal cortex, respectively; from tissue; host or cells: frontal cortex (synaptosomes; membranes); settings: synaptosomes from frontal cortex; HP4 3×10^−4-3×10^−11 g/mL; read-out: IC50, synaptosomal uptake of 5-HT
T7 sequence (P31652 whole entry): as the sequence (P31652 whole entry) above
Source text: as §1

[4] = molecular target: T5, synaptosomal reuptake of dopamine ([3H]-DA); settings: in vitro; cited from earlier work
[5] = molecular target: T6, synaptosomal reuptake of noradrenaline ([3H]-NA); settings: in vitro; cited from earlier work
[6] = molecular target: T7, synaptosomal reuptake of serotonin ([3H]-5HT); settings: in vitro; cited from earlier work
[7] = tested on: synatosomal reuptake of GABA; settings: in vitro; cited from earlier work
[8] = tested on: synatosomal reuptake of glutamate; settings: in vitro; cited from earlier work
corticosterone = assay: serum and cortical corticosterone in mice subjected to forced swimming (radioimmunoassay); type: in vivo; settings: three days of treatment, POL 360 mg/kg p.o., imipramine 20 mg/kg, bupropion 30 mg/kg; for serum levels of corticosterone: forced swimming
Description: Data are presented as mean±SEM. *p<0.01 compared to respective group without swimming; #p<0.01 compared to SAL with swimming. Legend: (A) X axis—corticosterone levels (μg/100 mL plasma); Blank values: no swimming; values hatch: with swim, (B) X axis—cortical Corticosterone (pg/100 mg tissue).
We evaluated the action of POL (360 mg/kg, p.o.) on serum and cortical levels of corticosterone in mice subjected or not to stress caused by forced swimming. The concentration of corticosterone present in the samples was measured by radioimmunoassay.

Molecule: COc1cc2c(c(O)c1C(=O)C(C)C)C=CC(C)(C)O2 [HP3, 5-hydroxy-6-isobutyryl-7-methoxy-2,2-dimethyl-benzopyran]
- IC50 (monoamine oxidase A): 22200 nM

- effect on binding of [3H]-mazindol to sites of uptake of DA (sites of uptake of DA): did not affect the binding
- effect on binding of [3H]-nisoxetina to sites of uptake of NA (sites of uptake of NA): did not affect the binding
- effect on binding of [3H]-citalopram to sites of uptake of 5-HT (sites of uptake of 5-HT): did not affect the binding
- effect on binding of [35S]GTPγS to its site (G proteins): did not alter the binding
- IC50 for dopamine relative to IC50 for NA and 5-HT (reuptake selectivity) ([1]; in vitro synaptosomal reuptake): almost three times smaller
- IC50 ([1]; synaptosomes from striatum, HP4 3×10^−4-3×10^−11 g/mL, read-out: IC50, synaptosomal uptake of DA): 90 ± 38 nM
- IC50 [2]: 280 ± 48 nM
- IC50 [3]: 252 ± 13 nM
Molecule: CC(C)C(=O)C1=C(O)C(C)(C)C(O)=C(Cc2c(O)c3c(c(C(=O)C(C)C)c2O)OC(C)(C)C=C3)C1=O [HP4, uliginosin B]
- activity in forced swimming test (immobility time of mice): active

Molecule: hyperforin
- inhibition of synaptosomal reuptake of dopamine [4]: inhibit
- inhibition of synaptosomal reuptake of norepinephrine [5]: inhibit
- inhibition of synaptosomal reuptake of serotonin [6]: inhibit
- inhibition of synaptosomal reuptake of GABA [7]: inhibits
- inhibition of synaptosomal reuptake of glutamate [8]: inhibits

Molecule: CN(C)CCCN1c2ccccc2CCc2ccccc21 [imipramine]
- level of cortical corticosterone raised by forced swimming (corticosterone): alters both serum and cortical levels
- serum levels of corticosterone (corticosterone): alters both serum and cortical levels

Molecule: CC(NC(C)(C)C)C(=O)c1cccc(Cl)c1 (stereo not shown) [bupropion]
- level of cortical corticosterone raised by forced swimming (corticosterone): alters both serum and cortical levels
- serum levels of corticosterone (corticosterone): alters both serum and cortical levels
